Article PMC11864979, “First-in-class ultralong-target-residence-time p38α inhibitors as a mitosis-targeted therapy for colorectal cancer” (Nature Cancer, 2025)
Where two headings read alike, the source gives them in different places.

Assays:
Experiment in all cases: selectivity profiling in a panel of 340 wild-type kinases (Reaction Biology Europe)
Assay type in all cases: binding
340 wild-type kinases [1] = target: T1, 340 wild-type kinases (Homo sapiens, UniProt Q5TCX8)
T1 construct: purchased Reaction Biology Europe

340 wild-type kinases [2] = target: T2, 340 wild-type kinases (Homo sapiens, UniProt Q9Y2U5)
T2 construct: purchased Reaction Biology Europe
T2 sequence (Q9Y2U5 1-619): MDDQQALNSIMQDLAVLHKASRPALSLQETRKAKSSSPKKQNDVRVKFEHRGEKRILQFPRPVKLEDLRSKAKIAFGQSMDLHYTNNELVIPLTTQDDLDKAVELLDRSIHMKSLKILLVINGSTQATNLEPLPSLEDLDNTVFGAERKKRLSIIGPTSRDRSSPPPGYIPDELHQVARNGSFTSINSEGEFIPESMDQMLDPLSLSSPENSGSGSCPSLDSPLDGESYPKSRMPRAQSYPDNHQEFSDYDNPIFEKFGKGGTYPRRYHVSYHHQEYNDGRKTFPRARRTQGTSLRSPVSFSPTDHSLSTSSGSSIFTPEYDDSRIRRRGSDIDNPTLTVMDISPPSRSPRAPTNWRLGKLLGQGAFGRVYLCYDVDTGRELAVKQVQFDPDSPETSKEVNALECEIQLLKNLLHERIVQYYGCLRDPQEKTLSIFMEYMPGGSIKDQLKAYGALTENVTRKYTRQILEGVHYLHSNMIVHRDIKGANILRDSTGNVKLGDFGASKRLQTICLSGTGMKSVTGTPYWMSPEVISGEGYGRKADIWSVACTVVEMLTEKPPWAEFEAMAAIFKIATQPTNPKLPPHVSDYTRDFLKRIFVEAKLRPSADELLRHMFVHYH

340 wild-type kinases [3] = target: T3, 340 wild-type kinases (Homo sapiens, UniProt P80192)
T3 construct: purchased Reaction Biology Europe

340 wild-type kinases [4] = target: T4, 340 wild-type kinases (Homo sapiens, UniProt P29597)
T4 construct: purchased Reaction Biology Europe

340 wild-type kinases [5] = target: T5, 340 wild-type kinases (Homo sapiens, UniProt Q9HC98)
T5 construct: purchased Reaction Biology Europe

340 wild-type kinases [6] = target: T6, 340 wild-type kinases (Homo sapiens, UniProt P43403)
T6 construct: purchased Reaction Biology Europe
T6 sequence (P43403 1-619): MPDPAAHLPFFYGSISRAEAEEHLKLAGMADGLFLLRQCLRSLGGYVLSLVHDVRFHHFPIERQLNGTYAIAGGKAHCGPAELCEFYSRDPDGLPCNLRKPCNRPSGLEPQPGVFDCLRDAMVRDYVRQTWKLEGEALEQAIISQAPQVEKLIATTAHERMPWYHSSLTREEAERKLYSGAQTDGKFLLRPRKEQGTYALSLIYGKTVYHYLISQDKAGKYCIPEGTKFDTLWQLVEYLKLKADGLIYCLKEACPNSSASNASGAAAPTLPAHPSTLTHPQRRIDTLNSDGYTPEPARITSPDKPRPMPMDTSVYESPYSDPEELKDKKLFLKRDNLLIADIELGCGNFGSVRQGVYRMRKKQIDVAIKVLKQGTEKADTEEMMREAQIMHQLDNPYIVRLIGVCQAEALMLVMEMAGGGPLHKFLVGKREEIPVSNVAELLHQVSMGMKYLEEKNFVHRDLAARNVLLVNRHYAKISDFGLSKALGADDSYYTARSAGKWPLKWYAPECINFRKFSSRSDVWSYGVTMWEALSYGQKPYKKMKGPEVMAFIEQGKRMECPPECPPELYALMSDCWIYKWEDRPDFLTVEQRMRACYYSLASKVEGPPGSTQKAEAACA

340 wild-type kinases [7] = target: T7, 340 wild-type kinases (Homo sapiens, UniProt Q9Y6E0)
T7 construct: purchased Reaction Biology Europe

340 wild-type kinases [8] = target: T8, 340 wild-type kinases (Homo sapiens, UniProt P51956)
T8 construct: purchased Reaction Biology Europe
T8 sequence (P51956 1-506): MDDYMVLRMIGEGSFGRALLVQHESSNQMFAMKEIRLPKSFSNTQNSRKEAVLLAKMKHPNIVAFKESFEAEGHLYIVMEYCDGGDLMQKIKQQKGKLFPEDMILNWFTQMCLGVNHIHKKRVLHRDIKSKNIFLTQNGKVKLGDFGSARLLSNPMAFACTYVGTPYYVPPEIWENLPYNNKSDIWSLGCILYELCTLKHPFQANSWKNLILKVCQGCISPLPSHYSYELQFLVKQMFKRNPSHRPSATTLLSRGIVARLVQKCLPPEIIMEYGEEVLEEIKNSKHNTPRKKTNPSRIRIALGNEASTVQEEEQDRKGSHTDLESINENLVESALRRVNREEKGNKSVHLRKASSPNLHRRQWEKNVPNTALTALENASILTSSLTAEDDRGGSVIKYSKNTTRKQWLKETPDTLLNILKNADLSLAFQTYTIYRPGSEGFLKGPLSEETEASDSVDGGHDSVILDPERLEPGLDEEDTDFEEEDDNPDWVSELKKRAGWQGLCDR

T1 sequence (Q5TCX8 whole entry): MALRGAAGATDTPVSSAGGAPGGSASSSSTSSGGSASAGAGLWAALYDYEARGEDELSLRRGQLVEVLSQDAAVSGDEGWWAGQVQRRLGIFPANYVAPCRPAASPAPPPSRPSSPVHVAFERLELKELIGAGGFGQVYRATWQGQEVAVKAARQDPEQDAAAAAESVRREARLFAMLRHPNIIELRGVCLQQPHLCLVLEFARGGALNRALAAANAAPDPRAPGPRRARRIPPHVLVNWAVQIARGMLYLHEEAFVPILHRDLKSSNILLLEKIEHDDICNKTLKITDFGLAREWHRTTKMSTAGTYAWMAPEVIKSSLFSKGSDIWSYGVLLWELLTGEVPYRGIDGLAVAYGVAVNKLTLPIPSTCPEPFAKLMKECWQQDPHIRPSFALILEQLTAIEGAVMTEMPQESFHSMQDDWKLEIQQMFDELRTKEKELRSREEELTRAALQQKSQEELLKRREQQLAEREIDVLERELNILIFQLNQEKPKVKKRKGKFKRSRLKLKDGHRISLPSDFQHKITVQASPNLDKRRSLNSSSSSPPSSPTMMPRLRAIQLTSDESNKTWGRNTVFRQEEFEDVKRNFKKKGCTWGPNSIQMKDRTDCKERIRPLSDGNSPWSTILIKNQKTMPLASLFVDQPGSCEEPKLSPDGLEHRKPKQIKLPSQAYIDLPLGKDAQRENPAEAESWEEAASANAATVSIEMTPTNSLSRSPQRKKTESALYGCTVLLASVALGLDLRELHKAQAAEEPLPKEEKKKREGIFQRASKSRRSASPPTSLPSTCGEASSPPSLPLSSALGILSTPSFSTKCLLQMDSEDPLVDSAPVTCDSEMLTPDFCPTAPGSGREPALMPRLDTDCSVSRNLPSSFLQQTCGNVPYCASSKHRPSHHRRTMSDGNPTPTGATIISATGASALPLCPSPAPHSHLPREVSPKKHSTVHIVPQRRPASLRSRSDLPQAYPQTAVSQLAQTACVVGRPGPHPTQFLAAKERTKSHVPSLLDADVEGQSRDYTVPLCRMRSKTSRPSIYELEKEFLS
T4 sequence (P29597 whole entry): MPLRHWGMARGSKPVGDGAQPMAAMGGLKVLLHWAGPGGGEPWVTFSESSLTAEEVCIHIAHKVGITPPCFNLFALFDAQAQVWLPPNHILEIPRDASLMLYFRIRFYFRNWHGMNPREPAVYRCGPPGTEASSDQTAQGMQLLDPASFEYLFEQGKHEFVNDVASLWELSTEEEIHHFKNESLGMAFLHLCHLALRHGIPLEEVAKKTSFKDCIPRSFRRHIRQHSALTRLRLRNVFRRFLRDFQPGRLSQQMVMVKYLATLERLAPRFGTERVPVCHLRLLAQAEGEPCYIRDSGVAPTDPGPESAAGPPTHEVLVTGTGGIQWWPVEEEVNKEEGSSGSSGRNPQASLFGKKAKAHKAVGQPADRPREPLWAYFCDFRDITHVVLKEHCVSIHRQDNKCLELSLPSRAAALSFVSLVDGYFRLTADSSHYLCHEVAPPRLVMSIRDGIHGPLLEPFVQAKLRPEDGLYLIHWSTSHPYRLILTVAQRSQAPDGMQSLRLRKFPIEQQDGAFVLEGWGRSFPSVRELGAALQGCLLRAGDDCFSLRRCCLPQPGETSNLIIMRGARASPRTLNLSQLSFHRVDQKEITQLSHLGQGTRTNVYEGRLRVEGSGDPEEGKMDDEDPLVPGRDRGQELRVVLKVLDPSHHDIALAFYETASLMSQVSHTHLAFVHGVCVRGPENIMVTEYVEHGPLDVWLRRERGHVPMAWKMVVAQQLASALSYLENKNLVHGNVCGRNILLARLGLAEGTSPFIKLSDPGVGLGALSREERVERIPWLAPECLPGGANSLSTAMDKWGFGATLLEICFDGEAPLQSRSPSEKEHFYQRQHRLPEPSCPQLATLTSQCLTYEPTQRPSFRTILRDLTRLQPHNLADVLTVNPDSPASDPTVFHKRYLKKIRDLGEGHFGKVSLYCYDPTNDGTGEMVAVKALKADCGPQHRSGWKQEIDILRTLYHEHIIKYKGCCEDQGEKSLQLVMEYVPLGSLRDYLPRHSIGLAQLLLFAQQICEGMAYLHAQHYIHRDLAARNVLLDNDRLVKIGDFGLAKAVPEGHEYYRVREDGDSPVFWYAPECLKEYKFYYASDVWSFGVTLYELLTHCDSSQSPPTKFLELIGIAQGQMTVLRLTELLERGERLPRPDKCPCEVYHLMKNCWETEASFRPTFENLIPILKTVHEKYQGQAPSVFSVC
T7 sequence (Q9Y6E0 whole entry): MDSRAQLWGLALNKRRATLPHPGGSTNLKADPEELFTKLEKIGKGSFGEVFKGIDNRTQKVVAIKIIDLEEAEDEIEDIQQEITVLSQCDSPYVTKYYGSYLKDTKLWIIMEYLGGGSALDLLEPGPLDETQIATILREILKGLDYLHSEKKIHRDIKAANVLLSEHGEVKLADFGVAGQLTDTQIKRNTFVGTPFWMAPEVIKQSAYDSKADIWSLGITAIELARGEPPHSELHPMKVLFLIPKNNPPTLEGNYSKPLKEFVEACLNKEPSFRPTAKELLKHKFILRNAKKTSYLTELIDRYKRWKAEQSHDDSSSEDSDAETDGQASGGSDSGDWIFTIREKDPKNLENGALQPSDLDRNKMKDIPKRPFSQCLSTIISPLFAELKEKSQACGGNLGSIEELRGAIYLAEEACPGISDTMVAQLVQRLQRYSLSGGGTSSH
T5 sequence (Q9HC98 whole entry): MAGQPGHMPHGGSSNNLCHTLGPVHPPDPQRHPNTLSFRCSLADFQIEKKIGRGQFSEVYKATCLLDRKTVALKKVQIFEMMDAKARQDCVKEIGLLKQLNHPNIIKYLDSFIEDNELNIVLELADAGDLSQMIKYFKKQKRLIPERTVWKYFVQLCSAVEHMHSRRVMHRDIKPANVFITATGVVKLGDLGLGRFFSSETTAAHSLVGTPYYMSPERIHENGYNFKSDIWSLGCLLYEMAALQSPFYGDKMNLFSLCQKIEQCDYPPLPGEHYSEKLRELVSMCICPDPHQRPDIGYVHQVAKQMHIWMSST
T3 sequence (P80192 whole entry): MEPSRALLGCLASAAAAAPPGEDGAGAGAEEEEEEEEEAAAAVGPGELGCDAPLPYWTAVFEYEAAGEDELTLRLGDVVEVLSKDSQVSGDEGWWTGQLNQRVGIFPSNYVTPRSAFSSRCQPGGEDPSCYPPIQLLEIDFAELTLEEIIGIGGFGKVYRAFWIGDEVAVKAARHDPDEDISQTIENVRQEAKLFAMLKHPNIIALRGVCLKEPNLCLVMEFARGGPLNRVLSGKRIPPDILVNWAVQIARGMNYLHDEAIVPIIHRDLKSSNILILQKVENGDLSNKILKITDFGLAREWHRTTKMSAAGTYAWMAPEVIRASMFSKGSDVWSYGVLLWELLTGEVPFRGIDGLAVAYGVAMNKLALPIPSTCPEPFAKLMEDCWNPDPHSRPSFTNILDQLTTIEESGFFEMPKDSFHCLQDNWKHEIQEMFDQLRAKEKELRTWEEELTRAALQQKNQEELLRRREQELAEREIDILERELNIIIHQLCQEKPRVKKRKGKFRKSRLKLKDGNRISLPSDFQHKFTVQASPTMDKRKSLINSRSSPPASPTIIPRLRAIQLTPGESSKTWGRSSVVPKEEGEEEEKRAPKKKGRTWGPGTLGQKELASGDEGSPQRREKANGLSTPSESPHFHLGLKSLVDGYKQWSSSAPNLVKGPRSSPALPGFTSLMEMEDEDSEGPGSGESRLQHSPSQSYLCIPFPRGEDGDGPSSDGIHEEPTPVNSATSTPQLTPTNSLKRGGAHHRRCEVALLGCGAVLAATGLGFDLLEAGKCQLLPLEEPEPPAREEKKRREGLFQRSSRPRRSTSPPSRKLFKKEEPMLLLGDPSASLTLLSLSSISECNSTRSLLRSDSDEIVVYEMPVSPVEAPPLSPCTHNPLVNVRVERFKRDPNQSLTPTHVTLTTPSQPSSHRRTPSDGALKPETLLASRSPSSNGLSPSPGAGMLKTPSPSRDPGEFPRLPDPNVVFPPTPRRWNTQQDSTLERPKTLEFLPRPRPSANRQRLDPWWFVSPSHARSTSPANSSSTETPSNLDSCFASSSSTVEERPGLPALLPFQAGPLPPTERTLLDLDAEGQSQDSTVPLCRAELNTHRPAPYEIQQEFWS

## CNC(=O)c1ccc2c(c1)C(=O)c1ccc(Nc3ccc(F)c(NC(=O)C4CC4)c3)cc1CC2 [Compound 2015]
340 wild-type kinases [1]; 0.2 µM 2015, read-out: MLK4 residual activity
  remaining activity at 0.2 µM: 96.4%
340 wild-type kinases [1]; 1 µM 2015, read-out: MLK4 residual activity
  remaining activity at 1 µM: 87.1%
340 wild-type kinases [1]; MLK4, 0.2 µM, read-out: residual activity
  remaining activity at 0.2 µM: 96.4%
340 wild-type kinases [1]; MLK4, 1 µM, read-out: residual activity
  remaining activity at 1 µM: 87.1%
340 wild-type kinases [2]; 0.2 µM 2015, read-out: MEKK2 residual activity
  remaining activity at 0.2 µM: 96.7%
340 wild-type kinases [2]; 1 µM 2015, read-out: MEKK2 residual activity
  remaining activity at 1 µM: 95.1%
340 wild-type kinases [2]; MEKK2, 0.2 µM, read-out: residual activity
  remaining activity at 0.2 µM: 96.7%
340 wild-type kinases [2]; MEKK2, 1 µM, read-out: residual activity
  remaining activity at 1 µM: 95.1%
340 wild-type kinases [3]; 0.2 µM 2015, read-out: MAP3K9 residual activity
  remaining activity at 0.2 µM: 114%
340 wild-type kinases [3]; 1 µM 2015, read-out: MAP3K9 residual activity
  remaining activity at 1 µM: 96.4%
340 wild-type kinases [3]; MAP3K9, 0.2 µM, read-out: residual activity
  remaining activity at 0.2 µM: 114%
340 wild-type kinases [3]; MAP3K9, 1 µM, read-out: residual activity
  remaining activity at 1 µM: 96.4%
340 wild-type kinases [4]; 0.2 µM 2015, read-out: TYK2 residual activity
  remaining activity at 0.2 µM: 103%
340 wild-type kinases [4]; 1 µM 2015, read-out: TYK2 residual activity
  remaining activity at 1 µM: 96.3%
340 wild-type kinases [4]; TYK2, 0.2 µM, read-out: residual activity
  remaining activity at 0.2 µM: 103%
340 wild-type kinases [4]; TYK2, 1 µM, read-out: residual activity
  remaining activity at 1 µM: 96.3%
340 wild-type kinases [5]; 0.2 µM 2015, read-out: NEK6 residual activity
  remaining activity at 0.2 µM: 95.6%
340 wild-type kinases [5]; 1 µM 2015, read-out: NEK6 residual activity
  remaining activity at 1 µM: 99.3%
340 wild-type kinases [5]; NEK6, 0.2 µM, read-out: residual activity
  remaining activity at 0.2 µM: 95.6%
340 wild-type kinases [5]; NEK6, 1 µM, read-out: residual activity
  remaining activity at 1 µM: 99.3%
340 wild-type kinases [6]; 0.2 µM 2015, read-out: ZAP70 residual activity
  remaining activity at 0.2 µM: 122%
340 wild-type kinases [6]; 1 µM 2015, read-out: ZAP70 residual activity
  remaining activity at 1 µM: 100%
340 wild-type kinases [6]; ZAP70, 0.2 µM, read-out: residual activity
  remaining activity at 0.2 µM: 122%
340 wild-type kinases [6]; ZAP70, 1 µM, read-out: residual activity
  remaining activity at 1 µM: 100%
340 wild-type kinases [7]; 0.2 µM 2015, read-out: MST3 residual activity
  remaining activity at 0.2 µM: 119%
340 wild-type kinases [7]; 1 µM 2015, read-out: MST3 residual activity
  remaining activity at 1 µM: 117%
340 wild-type kinases [7]; MST3, 0.2 µM, read-out: residual activity
  remaining activity at 0.2 µM: 119%
340 wild-type kinases [7]; MST3, 1 µM, read-out: residual activity
  remaining activity at 1 µM: 117%
340 wild-type kinases [8]; 0.2 µM 2015, read-out: NEK3 residual activity
  remaining activity at 0.2 µM: 98.3%
340 wild-type kinases [8]; 1 µM 2015, read-out: NEK3 residual activity
  remaining activity at 1 µM: 88.8%
340 wild-type kinases [8]; NEK3, 0.2 µM, read-out: residual activity
  remaining activity at 0.2 µM: 98.3%
340 wild-type kinases [8]; NEK3, 1 µM, read-out: residual activity
  remaining activity at 1 µM: 88.8%
